{
  "source": "paper PMC9245008",
  "about": "(ACS chemical biology, 2022)",
  "key": {"[1]": {"target": "T1, IRAK4 (Homo sapiens, UniProt Q9NWZ3)", "T1 sequence (Q9NWZ3 1-460)": "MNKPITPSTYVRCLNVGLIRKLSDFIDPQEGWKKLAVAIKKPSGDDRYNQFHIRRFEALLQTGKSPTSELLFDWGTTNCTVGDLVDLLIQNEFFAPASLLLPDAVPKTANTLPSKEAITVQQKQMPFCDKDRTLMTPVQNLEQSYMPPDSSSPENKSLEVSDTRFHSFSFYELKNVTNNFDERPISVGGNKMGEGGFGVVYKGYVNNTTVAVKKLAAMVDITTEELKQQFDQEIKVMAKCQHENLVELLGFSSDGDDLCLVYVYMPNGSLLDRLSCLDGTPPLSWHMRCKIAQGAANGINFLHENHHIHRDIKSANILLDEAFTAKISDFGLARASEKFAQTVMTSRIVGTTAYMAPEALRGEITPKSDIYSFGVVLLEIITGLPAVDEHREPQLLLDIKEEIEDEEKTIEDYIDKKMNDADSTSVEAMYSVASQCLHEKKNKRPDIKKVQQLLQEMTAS", "assay": "Potency of takinib analogues against IRAK4", "assay_type": "biochemical"}, "[2]": {"target": "CSNK1G2 (Homo sapiens, UniProt P78368)", "sequence (P78368 whole entry)": "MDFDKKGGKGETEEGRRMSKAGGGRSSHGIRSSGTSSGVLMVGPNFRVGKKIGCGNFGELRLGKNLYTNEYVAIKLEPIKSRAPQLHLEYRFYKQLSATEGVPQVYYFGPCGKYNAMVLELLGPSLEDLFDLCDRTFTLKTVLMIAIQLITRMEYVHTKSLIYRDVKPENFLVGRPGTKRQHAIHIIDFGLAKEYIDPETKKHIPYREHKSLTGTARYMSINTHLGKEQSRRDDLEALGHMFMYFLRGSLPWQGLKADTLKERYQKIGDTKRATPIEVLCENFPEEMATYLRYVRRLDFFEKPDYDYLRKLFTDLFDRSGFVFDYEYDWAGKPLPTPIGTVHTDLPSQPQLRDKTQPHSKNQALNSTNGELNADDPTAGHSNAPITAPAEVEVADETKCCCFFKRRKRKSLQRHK", "assay": "Dose–response of top 10 kinase hits", "assay_type": "biochemical", "conditions": "read-out: IC50 CSNK1G2, n = 2"}, "[3]": {"test_system": "TNF expression in THP-1 human macrophages", "assay": "Cytokine profile in stimulated THP-1 human macrophages", "assay_type": "cell-based", "conditions": "10 μM; THP-1 macrophages stimulated with LPS and IFNγ; vs vehicle"}, "[4]": {"target": "MLK1 (Homo sapiens, UniProt P80192)", "sequence (P80192 whole entry)": "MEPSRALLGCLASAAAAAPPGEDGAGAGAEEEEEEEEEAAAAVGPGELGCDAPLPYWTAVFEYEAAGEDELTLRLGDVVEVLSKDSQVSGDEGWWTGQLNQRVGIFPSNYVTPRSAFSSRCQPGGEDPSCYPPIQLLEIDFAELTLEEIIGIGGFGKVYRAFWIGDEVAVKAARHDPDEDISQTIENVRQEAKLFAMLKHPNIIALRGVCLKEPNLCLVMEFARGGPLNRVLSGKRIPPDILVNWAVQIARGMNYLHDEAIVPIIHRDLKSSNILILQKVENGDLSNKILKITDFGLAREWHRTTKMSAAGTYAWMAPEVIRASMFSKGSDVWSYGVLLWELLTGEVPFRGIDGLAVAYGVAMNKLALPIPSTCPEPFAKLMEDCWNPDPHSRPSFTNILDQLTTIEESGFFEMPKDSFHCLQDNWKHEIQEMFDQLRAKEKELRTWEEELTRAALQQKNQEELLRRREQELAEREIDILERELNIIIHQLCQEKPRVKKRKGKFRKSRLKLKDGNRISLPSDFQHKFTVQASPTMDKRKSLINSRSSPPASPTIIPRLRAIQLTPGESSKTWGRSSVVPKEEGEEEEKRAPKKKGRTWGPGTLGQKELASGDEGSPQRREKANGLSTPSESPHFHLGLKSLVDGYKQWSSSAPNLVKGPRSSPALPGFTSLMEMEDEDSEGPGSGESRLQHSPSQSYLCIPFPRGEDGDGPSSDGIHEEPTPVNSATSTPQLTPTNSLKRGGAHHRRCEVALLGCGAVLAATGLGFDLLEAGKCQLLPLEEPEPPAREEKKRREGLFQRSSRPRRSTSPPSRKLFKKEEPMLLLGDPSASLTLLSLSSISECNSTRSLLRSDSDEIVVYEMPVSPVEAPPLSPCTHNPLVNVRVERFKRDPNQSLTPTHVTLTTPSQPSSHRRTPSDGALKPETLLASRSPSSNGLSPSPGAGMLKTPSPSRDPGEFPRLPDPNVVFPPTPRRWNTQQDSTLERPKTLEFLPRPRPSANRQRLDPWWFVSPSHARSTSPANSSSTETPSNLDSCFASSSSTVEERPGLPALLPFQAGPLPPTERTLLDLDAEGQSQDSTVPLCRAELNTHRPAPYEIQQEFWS", "assay": "Dose–response of top 10 kinase hits", "assay_type": "biochemical", "conditions": "read-out: IC50 MLK1, n = 2"}, "[5]": {"target": "CAMKKβ−1 (Homo sapiens, UniProt Q96RR4)", "sequence (Q96RR4 whole entry)": "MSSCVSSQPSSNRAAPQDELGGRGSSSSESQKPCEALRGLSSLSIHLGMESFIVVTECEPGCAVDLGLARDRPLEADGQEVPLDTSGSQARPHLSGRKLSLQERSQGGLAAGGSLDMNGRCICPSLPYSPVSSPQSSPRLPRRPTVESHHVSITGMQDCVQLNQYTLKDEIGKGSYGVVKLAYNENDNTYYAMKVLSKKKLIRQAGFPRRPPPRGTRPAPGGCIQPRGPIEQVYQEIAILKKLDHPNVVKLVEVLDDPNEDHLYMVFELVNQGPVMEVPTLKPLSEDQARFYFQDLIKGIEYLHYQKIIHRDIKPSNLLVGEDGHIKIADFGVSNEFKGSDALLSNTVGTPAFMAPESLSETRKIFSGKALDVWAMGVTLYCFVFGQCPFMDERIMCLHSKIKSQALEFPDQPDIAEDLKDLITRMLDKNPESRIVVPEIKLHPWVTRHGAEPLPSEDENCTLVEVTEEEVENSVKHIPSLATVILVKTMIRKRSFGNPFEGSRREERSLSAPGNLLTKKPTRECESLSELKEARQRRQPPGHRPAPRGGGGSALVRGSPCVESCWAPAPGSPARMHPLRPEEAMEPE", "assay": "Dose–response of top 10 kinase hits", "assay_type": "biochemical", "conditions": "read-out: IC50 CAMKKβ−1, n = 2"}, "[6]": {"target": "T2, GCK (Homo sapiens, UniProt Q12851)", "T2 sequence (Q12851 1-820)": "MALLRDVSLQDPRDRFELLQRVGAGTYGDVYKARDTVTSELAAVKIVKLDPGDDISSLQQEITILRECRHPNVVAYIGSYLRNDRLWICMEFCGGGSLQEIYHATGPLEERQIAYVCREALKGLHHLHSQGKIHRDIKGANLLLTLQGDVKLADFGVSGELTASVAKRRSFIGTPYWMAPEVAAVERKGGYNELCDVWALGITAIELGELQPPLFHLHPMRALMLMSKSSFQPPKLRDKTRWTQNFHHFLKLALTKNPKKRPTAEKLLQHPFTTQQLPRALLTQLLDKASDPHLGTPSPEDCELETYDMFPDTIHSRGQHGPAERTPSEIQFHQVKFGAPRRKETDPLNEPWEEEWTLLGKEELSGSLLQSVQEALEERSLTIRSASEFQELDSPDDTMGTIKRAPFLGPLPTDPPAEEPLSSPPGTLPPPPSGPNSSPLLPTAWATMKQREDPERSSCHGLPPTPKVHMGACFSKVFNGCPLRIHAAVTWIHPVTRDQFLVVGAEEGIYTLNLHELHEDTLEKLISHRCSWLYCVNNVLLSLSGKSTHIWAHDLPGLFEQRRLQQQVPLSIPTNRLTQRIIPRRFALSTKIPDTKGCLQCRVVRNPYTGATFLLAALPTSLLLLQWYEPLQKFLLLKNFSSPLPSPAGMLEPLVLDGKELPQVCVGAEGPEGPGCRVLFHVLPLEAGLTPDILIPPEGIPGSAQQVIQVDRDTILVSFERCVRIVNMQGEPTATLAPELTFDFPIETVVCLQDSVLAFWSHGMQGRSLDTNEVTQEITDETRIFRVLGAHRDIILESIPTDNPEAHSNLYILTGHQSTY", "assay": "Dose–response of top 10 kinase hits", "assay_type": "biochemical"}, "[7]": {"target": "CK1γ2 (Homo sapiens, UniProt P78368)", "sequence (P78368 whole entry)": "as the sequence (P78368 whole entry) above", "assay": "MRC Dundee kinase panel screen at 10 μM", "assay_type": "biochemical"}, "[8]": {"target": "MAP4K5 (Homo sapiens, UniProt Q9Y4K4)", "sequence (Q9Y4K4 whole entry)": "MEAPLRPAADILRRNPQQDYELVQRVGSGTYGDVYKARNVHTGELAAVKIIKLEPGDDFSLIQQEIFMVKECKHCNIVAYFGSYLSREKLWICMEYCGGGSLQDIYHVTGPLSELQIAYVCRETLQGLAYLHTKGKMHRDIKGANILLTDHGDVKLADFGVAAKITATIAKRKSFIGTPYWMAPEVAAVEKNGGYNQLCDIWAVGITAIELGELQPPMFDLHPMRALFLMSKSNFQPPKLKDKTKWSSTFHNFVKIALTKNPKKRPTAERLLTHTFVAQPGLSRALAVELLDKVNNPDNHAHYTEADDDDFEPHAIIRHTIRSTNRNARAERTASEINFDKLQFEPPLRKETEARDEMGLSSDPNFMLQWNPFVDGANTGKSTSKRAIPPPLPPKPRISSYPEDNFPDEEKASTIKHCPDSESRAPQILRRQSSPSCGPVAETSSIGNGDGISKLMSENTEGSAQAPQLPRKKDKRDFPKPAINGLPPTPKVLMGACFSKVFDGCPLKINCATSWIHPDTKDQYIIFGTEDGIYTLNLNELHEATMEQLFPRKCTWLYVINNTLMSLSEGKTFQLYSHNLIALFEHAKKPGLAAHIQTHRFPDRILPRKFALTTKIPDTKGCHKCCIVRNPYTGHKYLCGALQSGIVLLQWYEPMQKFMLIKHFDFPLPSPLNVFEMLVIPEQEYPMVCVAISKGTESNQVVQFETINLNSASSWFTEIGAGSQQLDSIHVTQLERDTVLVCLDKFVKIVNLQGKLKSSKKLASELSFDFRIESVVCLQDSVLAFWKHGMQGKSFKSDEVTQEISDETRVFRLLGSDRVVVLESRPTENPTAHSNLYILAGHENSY", "assay": "Dose–response of top 10 kinase hits", "assay_type": "biochemical", "conditions": "read-out: IC50 MAP4K5, n = 2"}, "[9]": {"target": "T3, ULK2 (Homo sapiens, UniProt Q8IYT8)", "T3 sequence (Q8IYT8 1-1036)": "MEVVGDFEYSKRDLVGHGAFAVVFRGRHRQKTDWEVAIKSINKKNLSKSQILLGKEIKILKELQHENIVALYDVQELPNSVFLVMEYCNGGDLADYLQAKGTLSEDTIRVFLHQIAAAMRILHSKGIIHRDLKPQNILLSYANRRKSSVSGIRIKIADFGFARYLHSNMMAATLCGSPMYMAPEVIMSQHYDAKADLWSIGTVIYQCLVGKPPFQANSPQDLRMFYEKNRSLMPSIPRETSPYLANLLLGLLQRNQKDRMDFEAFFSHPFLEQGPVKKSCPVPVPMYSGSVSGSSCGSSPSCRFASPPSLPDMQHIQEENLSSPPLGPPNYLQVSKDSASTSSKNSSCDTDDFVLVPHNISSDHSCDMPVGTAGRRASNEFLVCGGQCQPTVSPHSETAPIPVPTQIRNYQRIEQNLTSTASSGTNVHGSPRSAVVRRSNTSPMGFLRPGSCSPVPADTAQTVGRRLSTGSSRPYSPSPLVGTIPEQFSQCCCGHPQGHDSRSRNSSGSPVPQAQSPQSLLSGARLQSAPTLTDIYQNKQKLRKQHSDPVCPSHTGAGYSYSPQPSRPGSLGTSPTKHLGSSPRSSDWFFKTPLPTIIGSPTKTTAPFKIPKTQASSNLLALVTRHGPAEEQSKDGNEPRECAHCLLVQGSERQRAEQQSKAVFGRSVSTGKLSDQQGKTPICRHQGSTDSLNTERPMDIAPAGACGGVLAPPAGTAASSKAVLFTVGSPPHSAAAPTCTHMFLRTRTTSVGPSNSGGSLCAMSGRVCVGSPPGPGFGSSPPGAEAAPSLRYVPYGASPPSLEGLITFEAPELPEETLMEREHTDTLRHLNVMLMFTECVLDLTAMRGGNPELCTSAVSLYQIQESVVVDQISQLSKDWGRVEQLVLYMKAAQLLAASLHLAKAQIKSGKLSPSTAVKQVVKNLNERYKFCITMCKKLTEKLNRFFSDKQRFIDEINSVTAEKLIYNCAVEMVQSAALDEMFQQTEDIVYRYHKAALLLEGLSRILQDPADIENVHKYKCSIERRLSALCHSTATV", "assay": "Dose–response of top 10 kinase hits", "assay_type": "biochemical", "conditions": "read-out: IC50 ULK2, n = 2"}},
  "data": [
    {"smiles": "CCCn1c(NC(=O)c2cccc(C(N)=O)c2)nc2ccc(CN3CCCCC3)cc21", "note": "[HS-276]", "values": [
      {"measurement": "IRAK4 inhibition in dose–response experiments", "setting": "[1]; Figure 2d", "result": "minimal IRAK4 inhibition"},
      {"measurement": "Ratio", "setting": "[1]; IRAK4 IC50 over TAK1 IC50", "result": 1000},
      {"measurement": "IC50", "setting": "[1]; read-out: IRAK4 IC50", "result": 2500, "unit": "nM"},
      {"measurement": "preference for TAK1 over IRAK4", "setting": "[1]; selectivity", "result": 1000, "unit": "fold"},
      {"measurement": "IC50", "setting": "[2]", "result": 809, "unit": "nM"},
      {"measurement": "reduction of TNF expression", "setting": "[3]", "result": 11, "unit": "fold"},
      {"measurement": "IC50", "setting": "[4]", "result": 5580, "unit": "nM"},
      {"measurement": "IC50", "setting": "[5]", "result": 1280, "unit": "nM"},
      {"measurement": "TAK1 more potently inhibited than GCK", "setting": "[6]; from dose–response IC50 values", "result": 4.1, "unit": "fold"},
      {"measurement": "IC50", "setting": "[6]; read-out: IC50 GCK, dose–response, n = 2", "result": 33, "unit": "nM"},
      {"measurement": "enzymatic activity", "setting": "[7]", "result": "< 15", "unit": "%"},
      {"measurement": "IC50", "setting": "[8]", "result": 124, "unit": "nM"},
      {"measurement": "IC50", "setting": "[9]", "result": 63, "unit": "nM"}
    ]}
  ]
}
